# Measured values: patent US20080248511A1, “METHODS TO QUENCH LIGHT FROM OPTICAL REACTIONS” (priority 2007, published 2008)
# Read-outs that look alike come from different tables or passages of the source.
# How the values were obtained:
# [1] = molecular target: T1, firefly luciferase (Photinus pyralis, UniProt P08659); assay: Detergent titration with Tergitol NP-9, digitonin or no lysing agent, firefly luciferase (Example 4); type: biochemical; settings: read-out: Relative Firefly Luc Intensity; for remaining activity at 0.0005 %: 0.0005% detergent; for remaining activity at 0.005 %: 0.0050% detergent; for remaining activity at 0.05 %: 0.0500% detergent
# Protocol: For measurement of firefly luciferase-mediated luminescence, a solution containing 110 mM HEPES pH 7.5, 8 mM MgSO4, 0.05% gelatin, 7.35 ng/ml firefly luciferase (QuantiLum® Luciferase; Promega) and the content of the Steady-Glo Luciferase Substrate (Promega) at the equivalent of 1×, As in the Renilla luciferase reactions, reactions contained either no lysing agent, 0.5% Tergitol NP-9 or 20 μg/ml digitonin. The same detergents were titrated as described above and firefly luciferase-mediated luminescence was measured.
# [2] = molecular target: T1, firefly luciferase; assay: Quaternary ammonium/phosphonium detergent screen, firefly luciferase (Example 5); type: biochemical; settings: final conc. 0.10% detergent; Tergitol NP-9 present; read-out: Retained Firefly Luciferase Luminescence (%)
# Protocol: (§1) Each detergent was added at 0.2% to a reagent solution containing 50 mM Tricine pH 8.3, 3.5 mM MgSO4, 1 mM CDTA, 30 mM thiourea and 0.5% Tergitol NP-9. This solution or one not containing a detergent inhibitor was used to resuspend the Bright-Glo™ luciferin substrate (Promega).
# (§2) The luciferase reactions were initiated by adding 100 μl of the firefly luciferase or Renilla luciferase enzyme solutions to 100 μl of reagent solution. The reactions were performed as described above. […] The detergent concentrations listed refer to the final concentration in the reaction.
# [3] = molecular target: T1, firefly luciferase; assay: biochemical; settings: 0.5% detergent in Luciferase Assay Reagent; read-out: Retained Firefly Luciferase Luminescence (%)
# Protocol: The retained luminescence for each luciferase was calculated by dividing the luminescence in the presence of the detergent by the luminescence in the absence of the test detergent. The selectivity value for each of the test detergents was determined by dividing the retained firefly luciferase luminescence by the retained Renilla luciferase luminescence.
# A set of detergents (Table 2; Sigma-Aldrich) was added at 0.5% (from a 5% or 10% stock solution) to either Luciferase Assay Reagent (Promega) or Renilla Luciferase Assay Reagent (Promega) and allowed to equilibrate at room temperature.
# The firefly luciferase and Renilla luciferase enzymes were diluted as follows. Firefly luciferase was diluted to 14 ng/ml in Phosphate Buffered Saline (PBS) containing 0.1% of the protein carrier Prionex® (Pentapharm). Renilla luciferase was diluted to 10 ng/ml in 1× Renilla Luciferase Lysis Buffer (Promega) containing 0.1% Prionex®. The Renilla Luciferase Lysis Buffer […] detergent micelles when using the Renilla Luciferase Assay Reagent. In the absence of other detergents, this prevents sequestering of coelenterazine which inhibits Renilla luciferase-mediated luminescence.
# The luciferase reactions were initiated by adding 40 μl of either the firefly or Renilla luciferase enzyme solution to 200 μl of the appropriate reagent solution (firefly luciferase enzyme solution+firefly luciferase reagent solution or Renilla luciferase enzyme solution+Renilla luciferase reagent solution, respectively). The reactions were performed in an opaque white, 96-well plate and luminescence was measured for 0.5 seconds per well using a Turner BioSystems Veritas™ Microplate luminometer. The retained firefly luciferase and Renilla luciferase luminescence, as well as the selectivity values for each detergent, were calculated (Table 2).
# [4] = molecular target: T2, Renilla luciferase (Renilla reniformis, UniProt P27652); assay: Detergent screen with Tergitol NP-9, Renilla luciferase (Example 3); type: biochemical
# T2 sequence (P27652 1-311): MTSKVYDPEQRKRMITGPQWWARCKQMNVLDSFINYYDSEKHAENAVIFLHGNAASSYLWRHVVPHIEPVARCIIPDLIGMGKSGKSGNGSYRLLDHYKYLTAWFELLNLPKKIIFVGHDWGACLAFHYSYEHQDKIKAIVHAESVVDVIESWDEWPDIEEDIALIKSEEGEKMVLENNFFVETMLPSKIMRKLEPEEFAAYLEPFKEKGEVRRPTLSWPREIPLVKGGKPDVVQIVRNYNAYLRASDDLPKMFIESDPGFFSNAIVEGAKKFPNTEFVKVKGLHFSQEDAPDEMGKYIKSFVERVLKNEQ
# Protocol: (§3) Unless otherwise specified, materials were obtained from Sigma-Aldrich.
# (§4) The firefly luciferase and Renilla luciferase enzymes were diluted as follows. Firefly luciferase was diluted to 14 ng/ml in Delbecco's Minimal Essential (DMEM) medium (Gibco/Invitrogen) containing 0.1% Prionex®. Renilla luciferase was diluted to 10 ng/ml in DMEM medium containing 0.1% Prionex®.
# (§5) The luciferase reactions were initiated by adding 50 μl of the firefly luciferase or Renilla luciferase enzyme solution to 50 μl of reagent solution. The reactions were performed as described above. The retained firefly luciferase and Renilla luciferase luminescence as well as the selectivity values for each quencher were calculated (Table 3). The values listed are based on 0.06% quencher in the reagent solution.
# [5] = molecular target: T1, firefly luciferase; assay: Detergent screen with Tergitol NP-9, firefly luciferase (Example 3); type: biochemical; settings: 0.06% quencher in reagent solution; 0.5% Tergitol NP-9
# Protocol: as §3, §4, §5
# [6] = molecular target: T2, Renilla luciferase; assay: Quaternary ammonium/phosphonium detergent screen, Renilla luciferase (Example 5); type: biochemical; settings: final conc. 0.10% detergent
# Protocol: as §1, §2
# [7] = molecular target: T1, firefly luciferase; assay: Quaternary ammonium/phosphonium detergent screen, firefly luciferase (Example 5); type: biochemical; settings: final conc. 0.03% detergent; Tergitol NP-9 present; read-out: Retained Firefly Luciferase Luminescence (%)
# [8] = molecular target: T2, Renilla luciferase; assay: biochemical; type: biochemical
# [9] = molecular target: T2, Renilla luciferase; assay: Quaternary ammonium/phosphonium detergent screen, Renilla luciferase (Example 5); type: biochemical; settings: final conc. 0.03% detergent
# [10] = Tergitol NP-9 present, read-out: Retained Renilla Luciferase Luminescence (%)
# T1 sequence (P08659 whole entry): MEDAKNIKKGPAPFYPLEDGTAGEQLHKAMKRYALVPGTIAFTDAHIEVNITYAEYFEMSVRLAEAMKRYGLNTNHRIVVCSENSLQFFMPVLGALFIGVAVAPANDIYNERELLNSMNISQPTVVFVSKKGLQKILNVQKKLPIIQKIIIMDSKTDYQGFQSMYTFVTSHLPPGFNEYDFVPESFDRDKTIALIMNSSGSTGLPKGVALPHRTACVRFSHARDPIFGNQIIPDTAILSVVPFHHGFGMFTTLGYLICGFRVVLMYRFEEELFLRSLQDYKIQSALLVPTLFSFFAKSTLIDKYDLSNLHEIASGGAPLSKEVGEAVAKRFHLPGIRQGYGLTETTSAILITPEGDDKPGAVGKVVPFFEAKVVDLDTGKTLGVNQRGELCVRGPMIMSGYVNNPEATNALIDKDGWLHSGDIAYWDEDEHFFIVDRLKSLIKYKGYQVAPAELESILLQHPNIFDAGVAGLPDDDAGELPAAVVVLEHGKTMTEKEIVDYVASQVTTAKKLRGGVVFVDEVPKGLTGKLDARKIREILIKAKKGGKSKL
compound,measurement,setting,value
CCCCCCCCCCCC[N+](C)(C)Cc1ccccc1.[Br-] [Benzyldimethyldodecylammonium bromide],remaining activity at 0.0005 %,[1]; Dig,111%
same,remaining activity at 0.0005 %,[1]; Terg,96%
same,remaining activity at 0.0005 %,[1]; Water,116%
same,remaining activity at 0.005 %,[1]; Dig,139%
same,remaining activity at 0.005 %,[1]; Terg,101%
same,remaining activity at 0.005 %,[1]; Water,155%
same,remaining activity at 0.05 %,[1]; Dig (20 μg/ml digitonin),37%
same,remaining activity at 0.05 %,[1]; Terg (0.5% Tergitol NP-9),50%
same,remaining activity at 0.05 %,[1]; Water (no lysing agent),79%
same,remaining activity at 0.1 %,[2],97%
same,remaining activity at 0.5 %,[3],20.7%
same,Retained Renilla Luminescence (%),"[4]; 0.06% quencher in reagent solution, 0.5% Tergitol NP-9",22%
same,lowering of selectivity value relative to the screen without Tergitol NP-9,[4]; Tergitol NP-9 in the reagent solution,about 50 fold
same,Selectivity Value,"[4]; retained firefly / retained Renilla, 0.06% quencher, 0.5% Tergitol NP-9",5.4
same,Retained Firefly Luminescence (%),[5],119%
same,Selectivity Value,[6],48.5
same,remaining activity at 0.1 %,[6]; [10],2%
same,remaining activity at 0.03 %,[7],100%
same,remaining activity at 0.5 %,"[8]; 0.5% detergent in Renilla Luciferase Assay Reagent, read-out: Retained Renilla Luciferase Luminescence (%)",0.08%
same,Selectivity Value,"[8]; retained firefly / retained Renilla, 0.5% detergent",259.9
same,Selectivity Value,[9],4
same,remaining activity at 0.03 %,[9]; [10],25%
